We go through 9 compounds from article PMC6284575 (2018).

Structures are written as SMILES.

Assay [1] relates to Spn class-II preQ1 riboswitch aptamer, A11Ap variant (RNA, riboswitch, 2-aminopurine at 11 (replacing A11)) CUUGGUGCUUAGCUUCUUUCACCAAGCAUAUUACACGCGGAUAACCGCCAAAGGA
Briefly: 2-aminopurine fluorescence titration. The settings on record: 100 mM KCl, 2 mM MgCl2; 50 mM MOPS, pH 7.5, 293 K; 0.5 µM RNA; apparent.

Assay [2] has as its system Tte class-I preQ1 riboswitch aptamer, U22Ap variant (RNA, riboswitch, 2-aminopurine at 22 (replacing U22)) CUGGGUCGCAGUAACCCCAGUUAACAAAACAAG
Briefly: 2-aminopurine fluorescence titration. Conditions: 100 mM KCl, 2 mM MgCl2; 50 mM MOPS, pH 7.5, 293 K; 0.5 µM RNA; apparent.

`NCCCCNCc1c[nH]c2nc(N)[nH]c(=O)c12`: the figures for the KD in assay [1] and in assay [2] were 148 nM and 41 nM, respectively.
With `COCCOCCOCCNCc1c[nH]c2nc(N)[nH]c(=O)c12`, the values for the KD in assay [1] and in assay [2] were 4580 nM and 922 nM, respectively.
Consider `[N-]=[N+]=NCCCCNCc1c[nH]c2nc(N)[nH]c(=O)c12`, for which the KD in assay [1] came out at 432 nM; in assay [2] it was 88 nM.
For the compound `Nc1nc2[nH]cc(CNCCCCCNCc3c[nH]c4nc(N)[nH]c(=O)c34)c2c(=O)[nH]1`, the KD amounted to 1030 nM in assay [1] and 590 nM in assay [2].
For `NCCCc1c[nH]c2nc(N)[nH]c(=O)c12` the same measures were 2830 nM and 71 nM.
`[N-]=[N+]=NCCOCCNCc1c[nH]c2nc(N)[nH]c(=O)c12`: the KD in assay [1] was 203 nM; in assay [2] it was 167 nM.
Consider `NCCCNCc1c[nH]c2nc(N)[nH]c(=O)c12`, for which the KD worked out at 97 nM in assay [1] and 32 nM in assay [2].
For the compound `NCc1c[nH]c2nc(N)[nH]c(=O)c12`, the KD in assay [1] was 430 nM; in assay [2], 51 nM.
With `[N-]=[N+]=NCCCNCc1c[nH]c2nc(N)[nH]c(=O)c12`, the KD stood at 254 nM in assay [1] and 30 nM in assay [2].
